Test results: PubChem BioAssay AID330 (DTP/NCI, 2004)
“And” between values parts separate entries of the source, which are not always exact repeats. Equal values may be shown once. Toxic doses and inconclusive results are not listed. How the source made its calls: active means survival T/C of 150% or more; inactive means T/C below 125% in these data.

Test system: P388 leukemia ip, CD2F1 mice, survival T/C
Assay: NCI In Vivo Anticancer Drug Screen. Data for tumor model P388 Leukemia (intraperitoneal) in CD2F1 (CDF1) mice
Conditions: endpoint: median survival time, higher = longer survival
In short: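 Mice carrying the transplanted tumor received test compound or vehicle. Survival was recorded in each group, and the value is the treated-group measurement divided by that of the vehicle-treated control group.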

[1] = dose: 100.0 mg/kg/injection, schedule: Q01DX001 (ip), vehicle: Klucel (hydroxypropylcellulose) (HPC)
[2] = dose: 60.0 mg/kg/injection, schedule: Q01DX005 (ip), vehicle: saline with Tween-80
[3] = dose: 120.0 mg/kg/injection, schedule: Q01DX005 (ip), vehicle: saline with Tween-80
[4] = dose: 240.0 mg/kg/injection, schedule: Q01DX005 (ip), vehicle: saline with Tween-80

Measured: T/C

Cc1ccc(S(=O)(=O)C(Sc2ccccc2)=S=NC(C)(C)C)cc1
inactive: dose: 50.0 mg/kg/injection, schedule: Q01DX009 (ip), vehicle: Klucel (hydroxypropylcellulose) (HPC) 104 % of control | dose: 100.0 mg/kg/injection, schedule: Q01DX009 (ip), vehicle: Klucel (hydroxypropylcellulose) (HPC) 98 % of control | dose: 200.0 mg/kg/injection, schedule: Q01DX009 (ip), vehicle: Klucel (hydroxypropylcellulose) (HPC) 109 % of control

CC(=O)NC1=C(C#N)CCCC1
inactive: dose: 100.0 mg/kg/injection, schedule: Q04DX003 (ip), vehicle: saline 101 % of control | dose: 200.0 mg/kg/injection, schedule: Q04DX003 (ip), vehicle: saline 104 % of control | dose: 400.0 mg/kg/injection, schedule: Q04DX003 (ip), vehicle: saline 100 % of control

CC(C)=NOC1CCCCC1O (stereo not drawn)
inactive: dose: 100.0 mg/kg/injection, schedule: Q04DX003 (ip), vehicle: saline with Tween-80 96 % of control | dose: 200.0 mg/kg/injection, schedule: Q04DX003 (ip), vehicle: saline with Tween-80 99 % of control | dose: 400.0 mg/kg/injection, schedule: Q04DX003 (ip), vehicle: saline with Tween-80 106 % of control

C=C1C(=O)O[C@@H]2C[C@@H](C)[C@@H]3C=CC(=O)[C@@]3(C)[C@@H](OC(=O)CCCC(=O)O[C@H]3[C@@H]4C(=C)C(=O)O[C@@H]4C[C@@H](C)[C@@H]4C=CC(=O)[C@]43C)[C@H]12
inactive: dose: 0.39 mg/kg/injection, schedule: Q01DX005 (ip), vehicle: Klucel (hydroxypropylcellulose) (HPC) 101 % of control | dose: 0.78 mg/kg/injection, schedule: Q01DX005 (ip), vehicle: Klucel (hydroxypropylcellulose) (HPC) 100 % of control | dose: 1.56 mg/kg/injection, schedule: Q01DX005 (ip), vehicle: Klucel (hydroxypropylcellulose) (HPC) 103 % of control and 118 % of control | dose: 3.12 mg/kg/injection, schedule: Q01DX005 (ip), vehicle: Klucel (hydroxypropylcellulose) (HPC) 116 % of control | dose: 6.25 mg/kg/injection, schedule: Q01DX005 (ip), vehicle: Klucel (hydroxypropylcellulose) (HPC) 109 % of control

NC(Cc1csc2ccc(Cl)cc12)C(=O)O (stereo not drawn)
inactive: dose: 50.0 mg/kg/injection, schedule: Q01DX001 (ip), vehicle: Klucel (hydroxypropylcellulose) (HPC) 102 % of control | [1] 100 % of control

COc1ccc(N2C(=O)CC(n3ccccc3=O)C2=O)cc1 (stereo not drawn)
inactive: dose: 100.0 mg/kg/injection, schedule: Q04DX002 (ip), vehicle: saline with Tween-80 100 % of control | dose: 200.0 mg/kg/injection, schedule: Q04DX002 (ip), vehicle: saline with Tween-80 99 % of control | dose: 400.0 mg/kg/injection, schedule: Q04DX002 (ip), vehicle: saline with Tween-80 101 % of control

COc1ccc(NS(=O)(=O)c2ccc(NCc3c4ccccc4nc4cc(Cl)ccc34)cc2)nn1
inactive: [2] 98 % of control | [3] 94 % of control | [4] 94 % of control

CC(O)(c1ccccc1)C(CCl)N1CCCCC1 (stereo not drawn)
inactive: dose: 50.0 mg/kg/injection, schedule: Q01DX009 (ip), vehicle: saline with Tween-80 100 % of control | dose: 100.0 mg/kg/injection, schedule: Q01DX009 (ip), vehicle: saline with Tween-80 105 % of control | dose: 200.0 mg/kg/injection, schedule: Q01DX009 (ip), vehicle: saline with Tween-80 105 % of control

COc1ccc(/C=C/C2=CC(=O)CC(/C=C/c3ccc(OC)c(OC)c3)C2)cc1OC (stereo not drawn)
inactive: [1] 89 % of control | dose: 200.0 mg/kg/injection, schedule: Q01DX001 (ip), vehicle: Klucel (hydroxypropylcellulose) (HPC) 100 % of control | dose: 400.0 mg/kg/injection, schedule: Q01DX001 (ip), vehicle: Klucel (hydroxypropylcellulose) (HPC) 97 % of control

CCOc1ccc(NC(=O)C(C(C)N2CCCCC2)N2CCCCC2)cc1 (stereo not drawn)
inactive: dose: 12.5 mg/kg/injection, schedule: Q01DX009 (ip), vehicle: saline 93 % of control | dose: 25.0 mg/kg/injection, schedule: Q01DX009 (ip), vehicle: saline 87 % of control

O=C(Nc1ccc(Cl)c(Cl)c1)NN1CCCCCC1
inactive: dose: 50.0 mg/kg/injection, schedule: Q01DX005 (ip), vehicle: saline with Tween-80 103 % of control | dose: 100.0 mg/kg/injection, schedule: Q01DX005 (ip), vehicle: saline with Tween-80 103 % of control | dose: 200.0 mg/kg/injection, schedule: Q01DX005 (ip), vehicle: saline with Tween-80 101 % of control

COc1ccc2cc(-c3ccccc3)[s+]cc2c1
inactive: dose: 3.12 mg/kg/injection, schedule: Q01DX009 (ip), vehicle: DMSO 91 % of control | dose: 6.25 mg/kg/injection, schedule: Q01DX009 (ip), vehicle: DMSO 86 % of control | dose: 12.5 mg/kg/injection, schedule: Q01DX009 (ip), vehicle: DMSO 89 % of control | dose: 50.0 mg/kg/injection, schedule: Q01DX009 (ip), vehicle: DMSO 99 % of control

O=[N+]([O-])c1ccc(S(=O)(=O)c2ccc(Nc3ccnc4cc(Cl)ccc34)cc2)cc1
inactive: dose: 50.0 mg/kg/injection, schedule: Q01DX005 (ip), vehicle: Klucel (hydroxypropylcellulose) (HPC) 98 % of control | dose: 100.0 mg/kg/injection, schedule: Q01DX005 (ip), vehicle: Klucel (hydroxypropylcellulose) (HPC) 91 % of control | dose: 200.0 mg/kg/injection, schedule: Q01DX005 (ip), vehicle: Klucel (hydroxypropylcellulose) (HPC) 90 % of control

Cc1ccc2c(c1)C1(SC(C)C(=O)N1c1ccc(Br)cc1)C(=O)N2 (stereo not drawn)
inactive: [2] 94 % of control | [3] 96 % of control | [4] 97 % of control
